For the first assay, the target named is T1, human 5-HT2c receptor (Homo sapiens, UniProt P28335).
T1 construct: expressed in transfected cells
T1 sequence (P28335 33-458): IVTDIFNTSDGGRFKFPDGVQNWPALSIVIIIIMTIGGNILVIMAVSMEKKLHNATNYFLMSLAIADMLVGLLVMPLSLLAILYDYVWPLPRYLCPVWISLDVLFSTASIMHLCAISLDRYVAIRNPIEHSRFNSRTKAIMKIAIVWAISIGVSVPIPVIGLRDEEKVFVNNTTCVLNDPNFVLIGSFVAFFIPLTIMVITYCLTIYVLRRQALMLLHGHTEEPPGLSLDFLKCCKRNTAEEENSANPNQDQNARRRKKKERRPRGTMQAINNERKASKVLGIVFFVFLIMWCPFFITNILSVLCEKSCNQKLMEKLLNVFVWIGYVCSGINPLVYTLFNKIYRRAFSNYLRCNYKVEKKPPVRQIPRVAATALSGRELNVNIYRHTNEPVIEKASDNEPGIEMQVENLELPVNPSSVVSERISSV
Description: 5-HT2c receptor affinity assay (displacement of 3H-labelled 5-HT, Scintillation Proximity Assay).
Settings: not given
Type of assay: binding. The procedure:
The 5-HT2c receptor affinity of compounds in the Examples was determined in competition experiments, where the ability of each compound in serial dilution to displace ^3H-labelledlabeled 5-HT, bound to membranes prepared from a transfected HEK293 cell line stably expressing the human 5-HT2c receptor protein, was monitored by Scintillation Proximity Assay technology. Non-specific binding was defined using 5 μM mianserin.
On the technique in general: Loss of bound radioactivity is the signal in a displacement assay; it reports binding, not function.
As usually defined, the Ki is a measure of affinity in units of concentration, obtained from inhibition or displacement. Take `FC(F)(F)c1ccc(N2CCNCC2)nc1SCc1ccccc1Cl` [Example 15, 1-[6-(2-Chloro-benzylsulfanyl)-5-trifluoromethyl-pyridin-2-yl]-piperazine, acetate]: the Ki was determined as 0.001 µM. Regarding `CCSc1nc(N2CCNCC2)ccc1C(F)(F)F` [Example 17, 1-(6-Ethylsulfanyl-5-trifluoromethyl-pyridin-2-yl)-piperazine, acetate], the inhibition constant (Ki) was determined as 0.015 µM. Consider `FC(F)(F)c1ccc(N2CCNCC2)nc1OCc1ccco1` [Example 25, 1-[6-(Furan-2-ylmethoxy)-5-trifluoromethyl-pyridin-2-yl]-piperazine, acetate], for which the affinity corresponds to a Ki of 0.014 µM. Turning to `CCSc1nc(N2CCNC[C@H]2C)ccc1C(F)(F)F` [Example 30, 1-(6-Ethylsulfanyl-5-trifluoromethyl-pyridin-2-yl)-2-(R)-methyl-piperazine, acetate], the Ki amounted to 0.024 µM. The compound `COc1ccc(F)cc1COc1nc(N2CCNCC2)ccc1C(F)(F)F` [Example 36, 1-[6-(5-Fluoro-2-methoxy-benzyloxy)-5-trifluoromethyl-pyridin-2-yl]-piperazine, acetate] displayed a Ki of 0.005 µM.

The assay is the same for the next values; noted with them: membranes from transfected HEK293 cells expressing human 5-HT2c receptor; 3H-5-HT radioligand; read-out: 5-HT2C receptor Affinity Ki.
Regarding `FC(F)(F)c1ccc(N2CCNCC2)nc1OCCOc1cccc2cccnc12` [Example 21, 8-[2-(6-Piperazin-1-yl-3-trifluoromethyl-pyridin-2-yloxy)-ethoxyl-quinoline, acetate], the Ki stood at 0.246 µM. Consider `C[C@H]1CN(c2ccc(C(F)(F)F)c(SCc3ccccc3Cl)n2)CCN1` [Example 38, 1-[6-(2-Chloro-benzylsulfanyl)-5-trifluoromethyl-pyridin-2-yl]-3-(S)-methyl-piperazine, acetate], for which the Ki stood at 0.006 µM.

The record behind these values is patent US7229997B2, “Compounds and their use” (Biovitrum AB, priority 2002, dated 2007).
